Test systems include U-251; Malme-3M; RXF 393; NCI-H522; HCT-15; EKVX; NCI/ADR-RES; SW-620; HL-60; BT-549; T47D; HCC 2998; NCI-H23; SK-MEL-2; MDA-N; SK-MEL-5; TK-10; SR; OVCAR-3.
Holding throughout (test): inhibition of tumour cell growth, NCI panel, 48 h

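In this assay, cells in 96-well plates receive the compound at five concentrations for 48 hours. Endpoints are linearly interpolated between the surrounding concentrations. Abbreviation: GI50, concentration required for 50% inhibition of growth.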 Calls of active or inactive are those of the source. Rule as the data show it: active = GI50 up to about 1.1 µM and inactive = higher.

Consider `CN(C)CCn1c(=O)c2ccc(NCCCN(C)CCCNc3ccc4c(=O)n(CCN(C)C)c(=O)n5c6ccc([N+](=O)[O-])cc6c(=O)c3c45)c3c(=O)c4cc([N+](=O)[O-])ccc4n(c1=O)c23`, for which the GI50 was < 0.01 µM (active) with U-251; 0.0594 µM (active) in the assay on Malme-3M; 0.0122 µM (active) in the assay on RXF 393; < 0.01 µM (active) in the assay with NCI-H522; less than 0.015 µM in the assay with HCT-15; 0.0411 µM (active) in the assay with EKVX. The GI50 was 0.0802 µM (active) with NCI/ADR-RES; < 0.0112 µM (active) in the assay with SW-620; < 0.027 µM (active) with HL-60; 0.0376 µM (active) with BT-549; 0.0968 µM (active) in the assay on T47D; < 0.01 µM (active) with HCC 2998. Also, the GI50 in the assay on NCI-H23 is < 0.01 µM (active); with SK-MEL-2 it was 0.0346 µM (active); in the assay on MDA-N, 0.0248 µM (active); in the assay with SK-MEL-5 it was < 0.0115 µM (active); with TK-10 it was < 0.0143 µM (active); in the assay on SR, < 0.01 µM (active). For the same compound, in the assay with OVCAR-3, the GI50 was < 0.033 µM (active).
Regarding `O=C(c1ccc(Cl)cc1)N(Cc1cccnc1)C(=S)N(Cc1cccnc1)C(=O)c1ccc(Cl)cc1`, the GI50 in the assay with U-251 is 22.7 µM (inactive); with Malme-3M, 51.2 µM (inactive); in the assay with RXF 393, 43.6 µM (inactive); with NCI-H522 it was 24.2 µM (inactive); with HCT-15, 33.9 µM; in the assay on EKVX it was 50.8 µM (inactive). For the same compound, the GI50 with NCI/ADR-RES was 31.2 µM (inactive); with SW-620, 40.5 µM (inactive); in the assay on HL-60, 33.2 µM (inactive); with BT-549 it was 23.7 µM (inactive); with T47D, 57.4 µM (inactive); in the assay on HCC 2998, 25.9 µM (inactive). In addition, the GI50 in the assay with NCI-H23 was 36.1 µM (inactive); in the assay on SK-MEL-2 it was 23 µM (inactive); with MDA-N, 22.2 µM (inactive); with SK-MEL-5, 27.5 µM (inactive); in the assay on TK-10 it was 53 µM (inactive); in the assay with SR it was 50.4 µM (inactive). Further, the GI50 in the assay on OVCAR-3 is 34 µM (inactive).
For the compound `Cn1c(=O)c2c(nc3n(Cc4ccccc4)c(=O)c(NCCBr)cn23)n(C)c1=O`, the GI50 in the assay with U-251 was 30.4 µM (inactive); with RXF 393, 14.9 µM (inactive); in the assay with NCI-H522, 22.2 µM (inactive); in the assay on HCT-15, 34.8 µM; with EKVX, 18.5 µM (inactive); in the assay with NCI/ADR-RES, 21.8 µM (inactive). Besides, the GI50 in the assay on SW-620 was 90.6 µM (inactive); in the assay with HL-60 it was 38.8 µM (inactive); with BT-549 it was 28.4 µM (inactive); with T47D it was 21.1 µM (inactive); in the assay with HCC 2998 it was 16.1 µM (inactive); in the assay on NCI-H23 it was 40.4 µM (inactive). The GI50 with SK-MEL-2 is 17.2 µM (inactive); with MDA-N, 57.3 µM (inactive); in the assay on SK-MEL-5 it was 26.2 µM (inactive); with TK-10 it was 16.3 µM (inactive); with SR it was 6.43 µM (inactive); in the assay with OVCAR-3 it was 19.1 µM (inactive).
`COC(=O)/C=C(\S/C=C(/c1ccccc1)N1CCn2c(C(=O)c3ccccc3)c(C(=O)OC)c(C(=O)OC)c21)C(=O)OC`: the GI50 in the assay with U-251 was 3.93 µM (inactive); in the assay with Malme-3M, 2.2 µM (inactive); in the assay on RXF 393, 2.67 µM (inactive); in the assay with NCI-H522, 0.434 µM (active); with HCT-15, 2.6 µM; in the assay with EKVX, > 10 µM (inactive). Besides, the GI50 was 3.52 µM (inactive) in the assay with NCI/ADR-RES; 0.565 µM (active) with SW-620; 0.531 µM (active) with HL-60; 3.83 µM (inactive) in the assay with BT-549; 2.92 µM (inactive) in the assay on T47D; > 10 µM (inactive) with HCC 2998. Besides, the GI50 was 3.3 µM (inactive) with NCI-H23; > 10 µM (inactive) in the assay with SK-MEL-2; > 10 µM (inactive) in the assay with MDA-N; > 10 µM (inactive) in the assay with SK-MEL-5; 2.63 µM (inactive) in the assay on TK-10; 2.61 µM (inactive) in the assay on SR. In the assay on OVCAR-3, the GI50 was 1.51 µM (inactive).
Consider `CN(/N=C/c1cccs1)c1ccc(Cl)cc1[N+](=O)[O-]`, for which the GI50 with U-251 was 13.7 µM (inactive); in the assay on RXF 393, 23.6 µM (inactive); in the assay on NCI-H522, 22.6 µM (inactive); in the assay on HCT-15 it was 10.6 µM; in the assay on EKVX, 32.7 µM (inactive); in the assay with NCI/ADR-RES it was 18.9 µM (inactive). In addition, the GI50 in the assay with SW-620 is 12.3 µM (inactive); with HL-60 it was 6.75 µM (inactive); in the assay with BT-549 it was 40.6 µM (inactive); in the assay with T47D it was 41.6 µM (inactive); in the assay with HCC 2998, 25.8 µM (inactive); in the assay on NCI-H23 it was 35.3 µM (inactive). For the same compound, the GI50 in the assay with MDA-N was 3.84 µM (inactive); in the assay on SK-MEL-5, 36.9 µM (inactive); with TK-10 it was 35.2 µM (inactive); in the assay with SR, 5.71 µM (inactive); with OVCAR-3 it was 39.8 µM (inactive).
For `N=c1nc(N)nc(N)n1-c1ccc(S(N)(=O)=O)cc1`, the GI50 was > 100 µM (inactive) in the assay on U-251; > 100 µM (inactive) in the assay on Malme-3M; > 100 µM (inactive) with RXF 393; > 100 µM (inactive) with NCI-H522; greater than 100 µM in the assay with HCT-15; > 100 µM (inactive) in the assay on EKVX. The GI50 in the assay on NCI/ADR-RES, in the assay with SW-620, with HL-60, in the assay on BT-549, in the assay on T47D and with NCI-H23 was > 100 µM (inactive) in each case. Moreover, the GI50 in the assay on SK-MEL-2, in the assay with MDA-N, in the assay with SK-MEL-5, in the assay on TK-10, with SR and in the assay on OVCAR-3 was > 100 µM (inactive) in each case.
Regarding `O=C1OC(c2ccccc2)=N/C1=C\c1ccc(N(CCCl)CCCl)cc1`, the GI50 was > 100 µM (inactive) with U-251; > 100 µM (inactive) in the assay with Malme-3M; 42 µM (inactive) in the assay on RXF 393; 21.3 µM (inactive) in the assay with NCI-H522; greater than 100 µM with HCT-15; > 100 µM (inactive) with EKVX. The GI50 was > 85.1 µM (inactive) in the assay with NCI/ADR-RES; > 100 µM (inactive) with SW-620; 45.4 µM (inactive) with HL-60; > 100 µM (inactive) in the assay on BT-549; 14.5 µM (inactive) in the assay with T47D; > 100 µM (inactive) in the assay with HCC 2998. Moreover, the GI50 in the assay with NCI-H23 was > 57.8 µM (inactive); in the assay on SK-MEL-2, > 27.2 µM (inactive); in the assay on MDA-N, > 100 µM (inactive); in the assay with SK-MEL-5, > 100 µM (inactive); with TK-10 it was > 100 µM (inactive); in the assay with SR, 11.6 µM (inactive). Also, in the assay on OVCAR-3, the GI50 was > 76.2 µM (inactive).
In the case of `C=C1CC2(CC(c3ccccc3C)OC(c3ccccc3C)C2)OC1=O` (configuration not stated), the GI50 was 12.9 µM (inactive) in the assay on U-251; 1.71 µM (inactive) in the assay on Malme-3M; 2.29 µM (inactive) with RXF 393; 1.73 µM (inactive) in the assay with NCI-H522; 1.95 µM in the assay on HCT-15; 16.1 µM (inactive) in the assay on EKVX. Moreover, the GI50 with NCI/ADR-RES was 3.48 µM (inactive); in the assay on SW-620, 1.73 µM (inactive); in the assay with HL-60, 1.6 µM (inactive); in the assay on BT-549, 1.92 µM (inactive); in the assay on T47D, 1.72 µM (inactive); in the assay on HCC 2998 it was 2.25 µM (inactive). Also, the GI50 in the assay with NCI-H23 is 1.96 µM (inactive); in the assay with SK-MEL-2 it was 2 µM (inactive); in the assay with MDA-N it was 1.75 µM (inactive); in the assay on SK-MEL-5, 1.86 µM (inactive); in the assay with TK-10, 1.74 µM (inactive); in the assay on SR, 2.15 µM (inactive). Besides, the GI50 in the assay on OVCAR-3 is 1.78 µM (inactive).
As for `COc1cc(Oc2c(C)c(Cl)c(OC)c(Cl)c2OC)c2c(c1Cl)COC2=O`, the GI50 in the assay with U-251 was 29.8 µM (inactive); with Malme-3M, 15.2 µM (inactive); in the assay with RXF 393, 35.6 µM (inactive); with NCI-H522, 11.5 µM (inactive); with HCT-15, 13.9 µM; with EKVX, 22.3 µM (inactive). Besides, the GI50 in the assay on NCI/ADR-RES was 17.1 µM (inactive); in the assay with SW-620, 52 µM (inactive); in the assay with HL-60, 7.78 µM (inactive); with BT-549, 43.6 µM (inactive); in the assay on T47D, 9.73 µM (inactive); with HCC 2998 it was 26.6 µM (inactive). In addition, the GI50 was 18.6 µM (inactive) in the assay with NCI-H23; 14.3 µM (inactive) in the assay with MDA-N; 12.2 µM (inactive) in the assay with SK-MEL-5; 71.3 µM (inactive) in the assay on TK-10; 3.85 µM (inactive) with SR.
As to `O=C1C2=C(CC3=C(C2)CS(=O)(=O)C3)C(=O)C2=C1CC1=C(C2)CS(=O)(=O)C1`, the GI50 in the assay with U-251 is 13.5 µM (inactive); with Malme-3M it was 5.42 µM (inactive); in the assay on RXF 393, 27.3 µM (inactive); in the assay on NCI-H522, 11.3 µM (inactive); with HCT-15, 34.1 µM; in the assay with EKVX it was 33.2 µM (inactive). Moreover, the GI50 was 16.3 µM (inactive) in the assay with NCI/ADR-RES; 18 µM (inactive) in the assay with SW-620; 8.93 µM (inactive) with HL-60; 18.5 µM (inactive) in the assay on BT-549; 2.34 µM (inactive) in the assay with T47D; 20.6 µM (inactive) with HCC 2998. In addition, the GI50 in the assay with NCI-H23 was 23.9 µM (inactive); in the assay on SK-MEL-2, 32.4 µM (inactive); with MDA-N it was 10.3 µM (inactive); with SK-MEL-5, 16.3 µM (inactive); in the assay on TK-10, 48.9 µM (inactive); in the assay on SR, 4.4 µM (inactive). The GI50 in the assay on OVCAR-3 is 3.35 µM (inactive).
With `CC1(CCCC2(C)CCNC2=O)OCCO1` (configuration not stated), the GI50 with U-251 was > 10 µM (inactive); in the assay on Malme-3M, > 10 µM (inactive); in the assay with RXF 393, > 10 µM (inactive); in the assay with HCT-15, greater than 10 µM; in the assay with EKVX, > 10 µM (inactive); in the assay with NCI/ADR-RES, > 10 µM (inactive). Besides, the GI50 in the assay with SW-620, with HL-60, in the assay on BT-549, in the assay with T47D, in the assay on HCC 2998 and in the assay with NCI-H23 was > 10 µM (inactive) each time. Also, the GI50 in the assay with SK-MEL-2, in the assay on MDA-N, with SK-MEL-5, in the assay with TK-10, in the assay on SR and with OVCAR-3 was > 10 µM (inactive) throughout.

(Values after ChEMBL document CHEMBL1201862, “PubChem BioAssay data set” (2004).)
